From a melting point compilation (Tetko et al.; mined from patent text by program, amines drawn as free bases though some values may be those of a salt)

Row | melting point | SMILES
1 | 44 to 46 °C | CC(=Cc1ccccc1)c1ccc2c(c1)OCCC2(C)C
2 | 182 °C | NC(=O)Cc1cn(-c2ccccc2)nc1-c1ccc(Cl)cc1
3 | 137 to 139 °C | Cc1cccc(N2CCOC2=O)c1CNc1cccn2c(Cl)c(C)nc12
4 | > 250 °C | CNCC1Cc2cc(-c3ccccc3)cc(-c3ccc(Cl)cc3)c2O1 (stereo not drawn)
5 | 248 to 250 °C | Cc1cccc(C)c1-n1cnc(N)nc1=O
6 | 92 to 94 °C | CCC(O)CN1N=C(c2ccccc2)CC(O)C1=O (stereo not drawn)
7 | 222 to 224 °C | O=C(Nc1ccc2ccc(-c3ccc(Cl)cc3)nc2n1)c1cccc(Cl)c1
8 | 177 to 178 °C | Cn1nc(N)c2sc3ccccc3c21
9 | 219 to 221 °C | CN1CCC(C2(O)c3ccccc3C=Cc3ccc(C#N)cc32)CC1 (stereo not drawn)
10 | 169 to 171 °C | O=C(NCc1ccn(-c2cc3nc(C(=O)O)c(=O)[nH]c3cc2C(F)(F)F)c1)Nc1cccc(F)c1
11 | 86 to 87 °C | CC(=O)Oc1c(C)c(C)c2c(c1C)C(c1ccc(F)cc1)C(C)(C)O2 (stereo not drawn)
12 | 178 to 185 °C | Cc1c(Cc2ccc([N+](=O)[O-])cc2)c(=O)oc2cc(OCC#N)cc(OCC#N)c12
13 | 166 to 167 °C | CC(C)(N)c1ccc(-c2nc(Nc3cccc(CCN4CCOCC4)c3)ncc2C#N)cc1
14 | 155 °C | O=C1c2ccccc2C(O)N1CCCN1CCN(c2ccc(F)cc2)CC1 (stereo not drawn)
15 | 87 to 89 °C | COc1ccc(C2=NN(Cc3ccncc3)C(=O)[C@H]3CCCC[C@@H]23)cc1OC (relative stereo)
16 | 222 to 224 °C | N#Cc1ccc(-c2nc(N3C(=O)OCC34CC4)sc2F)cc1
17 | 166 to 168 °C | CCOC(=O)C(C)OCC#Cc1cc(Cl)ccc1NS(=O)(=O)c1ccc2ncsc2c1 (stereo not drawn)
18 | 90 to 92 °C | CCOC(=O)OCn1c(SCc2nccc3ccsc23)nc2ccccc21
19 | 109 to 111 °C | CCCCN1CCN(c2nc(C)c(C(=O)NCc3cccnc3)s2)C1=O
20 | 155 to 157 °C | CC(C#Cc1ccc(Br)cc1)N(O)C(N)=O (stereo not drawn)
21 | 162 to 165 °C | Cc1ccn(-c2nc3ccccc3c(=O)[nH]2)n1
22 | 160 to 162 °C | C[C@@H](N1CCN(S(=O)(=O)c2ccc([N+](=O)[O-])cc2)CC1)[C@](O)(Cn1cncn1)c1ccc(F)cc1F
23 | 134 to 135 °C | CCOP(=O)(Cc1ccc(NC(=O)CCc2cnoc2-c2ccc(F)cc2)cc1)OCC
24 | 212 to 213 °C | C[C@@H](NC(=O)c1ccc(-c2ccccn2)s1)[C@](O)(Cn1cncn1)c1ccc(F)cc1F
25 | 145 to 146 °C | O=[N+]([O-])c1ccc(CCN2CCN(c3cc(Cl)nnc3Cl)CC2)c([N+](=O)[O-])c1
26 | > 300 °C | O=c1[nH]c2cc3nc(-c4ccncc4)[nH]c3cc2[nH]c1=O
27 | 128 °C | CCC(C)N(C)C(=O)c1nc(-c2ccccc2)c2ccccc2n1 (stereo not drawn)
28 | 305 to 306 °C | O=C1CCCN1CCCn1c(=O)[nH]c2ncc(-c3ccc(O)cc3)nc21
29 | 133 to 135 °C | Cn1ncnc1COc1nc2c(cc1-c1ccsc1)nnn2-c1ccccc1F
30 | 103 to 105 °C | COC(=O)c1ccc2ccc(C(C)=O)cc2c1

Continued, compound first:

Row | SMILES | melting point
31 | CCC(O)(c1ccc(O)cc1)c1cccc(C(F)(F)F)c1 (stereo not drawn) | 102 to 103 °C
32 | COc1cc2ncnc(N3CCC(CN)CC3)c2cc1OC | 144 to 146 °C
33 | C=CCO/N=C(\C(=O)OC)c1csc(N)n1 | 133 to 134 °C
34 | CC(=O)Nc1cccc(CNC(=O)c2[nH]c3ccc(Cl)cc3c2S(=O)(=O)c2ccccc2)c1 | 249 to 250 °C
35 | CCOC(=O)C(=O)Nc1cc(O)ccc1O | > 300 °C
36 | NS(=O)(=O)c1cc2nc(O)c(O)nc2c2ccccc12 | > 300 °C
37 | CN(C)C=Nc1nc2c(s1)C(=O)C(=CN(C)C)CC2 | 185 to 186 °C
38 | CCCOC1CC2(C)C(CCC3C2CCC2(C)C(C(=O)CSCCCO)CCC32)CC1O (stereo not drawn) | 133 to 136 °C
39 | CC1(C)Oc2cc3nonc3cc2C(NC(=O)NCCCCl)C1O (stereo not drawn) | 83 to 85 °C
40 | CN1CCC(N2C(=O)CN=C(c3ccccc3Cl)c3cc(Cl)ccc32)CC1 | 146 to 147 °C
41 | COc1c(C)cc2c(c1C)Cc1c-2[nH]c2c(C)cc(C)cc12 | 210 °C
42 | OC[C@@H]1CNCc2cc3ccc(C(F)(F)F)cc3n21 | 126 to 127 °C
43 | CCCCC(=O)Nc1ccc(Oc2ncc(Cl)cn2)c(C)c1 | 146 to 150 °C
44 | CC(C)S(=O)(=O)c1cccc(OS(C)(=O)=O)n1 | 70.5 to 71.5 °C
45 | O=C(CN1C(=O)c2ccccc2C1=O)c1cc(O)c(O)c([N+](=O)[O-])c1 | 214 to 216 °C
46 | C=CCNc1nc(NCC=C)c2scc(CC)c2n1 | 55 °C
47 | CCOC1Nc2c(ccc(OC)c2O)C(=O)N2CCCC12 (stereo not drawn) | 155 to 158 °C
48 | COc1cc(CBr)c(Br)cc1OCc1ccccc1 | 103 to 105 °C
49 | COC(=O)c1ccc(OCCNC(=O)c2ccc(Br)cc2)cc1 | 134 to 136 °C
50 | CC(C)(CO)Oc1ccccc1 | 91 to 92 °C
51 | CCN(CC)C(=O)NC1CC2c3cccc4[nH]c(CCc5ccc(OC)cc5)c(c34)CC2N(C)C1 (stereo not drawn) | 147 to 149 °C
52 | CC(C)(C)[Si](C)(C)O[C@@H]1C=CO[C@H](CO)[C@H]1O | 55 to 56 °C

Row | SMILES | melting point
53 | COc1ccc2[nH]c(SCc3ncc(C)c(N(C)C)c3Cl)nc2c1 | 109 to 110 °C
54 | CNC(=O)N(OC(=O)OC)c1ccc(Cl)cc1 | 145 to 146 °C
55 | C[Si]1(C)CCCCCCCCCCCCCC[Si](C)(C)O[Si](C)(C)CCCCCCCCCCCCCC[Si](C)(C)O1 | 97 °C
56 | O=C(OCc1ccc([N+](=O)[O-])cc1)N1CCC(I)CC1 | 102 to 104 °C
57 | CCOC(=O)CCC(=O)N[C@@H](CC(C)C)C(=O)N[C@@H](C(C)C)[C@@H](O)c1c(-c2ccccc2)c1=O | 111 to 112 °C
58 | CS(=O)Cc1ccc(C(=O)c2ccc(Cl)cc2)cc1 (stereo not drawn) | 116 to 118 °C
59 | CN(Cc1cc2c(=O)c(C(=O)NCc3ccc(Cl)cc3)cn(C)c2s1)C[C@@H](O)c1ccco1 | 159 to 162 °C
60 | N#CCc1ccc([N+](=O)[O-])c2[nH]ncc12 | 198 to 200 °C
61 | O=Cc1cc(Cl)ccc1OC/C=C/CCl | 62 to 63 °C
62 | NCCOC(=C1C2CC3CC(C2)CC1C3)c1cccc(O)c1 | 55 °C
63 | CCCCCCCCCCCCC(Oc1ccc(NS(=O)(=O)CCCC)cc1)C(=O)O (stereo not drawn) | 80 to 82 °C
64 | CCCCSC(=S)N1Cc2[nH]c3ccccc3c2CC1CO (stereo not drawn) | 60 to 63 °C
65 | COc1cc([N+](=O)[O-])ccc1S(=O)(=O)Nc1ccc(C)cc1 | 126 to 129 °C
66 | NCCCCCCCCCCN1CCN(CC(=O)N2c3ccccc3C(=O)Nc3cccnc32)CC1 | 95 to 97 °C
67 | CC(C)OCCNC(=O)c1n[nH]cc1NC(=O)c1ccccc1 | 121 to 122 °C
68 | COC1CCC(OC)C2=C1C=CC(O)(C(C)=O)C2 (single isomer, unassigned; (-)) | 130 to 132 °C
69 | COC1=NS(=O)(=O)N=C1NCCCCC#CCN(C)C | 172 to 174 °C
70 | COc1cc(Cl)cc(CC(O)CO)c1OCc1ccccc1 (stereo not drawn) | 65 to 68 °C
71 | Cc1cccc(NC(=O)Nc2ccc(-c3c(C(N)=O)[nH]c4ccccc34)cc2)c1 | 140 to 142 °C
72 | CC(NC(=O)c1c(F)cccc1F)C(F)(F)F (stereo not drawn) | 167 to 168 °C
73 | CCOC(=O)N1CCCC2(OCCO2)C1Cc1c[nH]c2ccccc12 (stereo not drawn) | 122 to 125 °C
